“Also recorded” adds a separate entry of the source. Read-outs that look alike come from different tables or passages of the source.
Experiments:
[1] = tested on: cell surface heparan sulfate of Vero E6 cells; assay: Heparan sulfate presentation by anti-HS mAb 10E4 staining of Vero E6 cells; type: cell-based, African green monkey; settings: Vero E6, 18 h
[2] = tested on: heparan sulfate of Hep3B cells; assay: HS content and disaccharide analysis by LC-MS in Hep3B cells; type: cell-based, human
[3] = tested on: core HSPGs in Hep3B cells; assay: HSPG core proteins by SDS-PAGE with mAb 3G10 in Hep3B cells; type: cell-based, human
authentic SARS-CoV-2 [4] = type: cell-based
authentic SARS-CoV-2 [5] = type: cell-based; remark: listed apart in the source
Vero E6 cells = assay: Cell number of Vero E6 cells treated for 24 h; type: cell-based, African green monkey; settings: Vero E6, 24 h
Procedure: FIG. 32A and FIG. 32B. […] A-B, Measurement of authentic SARS-CoV-2 infection and cell number in Vero E6 cells treated with (A) halofuginone (HF) or (B) the 2R,3S-(+) enantiomer for 24 h. Data shown as mean±S.D.

[6] = tested on: authentic SARS-COV-2 virus; assay: SARS-CoV-2 infected golden hamsters, intraperitoneal halofuginone; type: in vivo; settings: for viral titer (TCID50 from nasal washes): 200 μg/kg intraperitoneally daily
Procedure: FIG. 35A, FIG. 35B, and FIG. 35C.
Six golden hamsters were dosed at 200 μg/kg with halofuginone starting at day −1, infected at day 0 with authentic SARS-COV-2 virus, and every day for five more days they received 200 μg/kg of halofuginone (FIG. 35A). Dosing was done intraperitoneally. A control group (n=6) was administered PBS. On day 3, half of the animals (n=3) in each group was sacrificed, and at day 5 the remaining animals (n=3) were sacrificed. TCID50 values as a measure of SARS-CoV-2 infectivity were measured from nasal washes at day 3 and day 5; the values were determined by viral cytopathic effect.

DENV-2 (Dengue) = assay: DENV-2 antiviral immunofluorescence assay in Huh7 cells; type: cell-based; settings: Dengue virus, DENV2, Huh-7, read-out: EC50 DENV-2
Procedure: (§1) Experimental Procedure. The antiviral activity of 8 dilutions of each compound was explored by adding the drug to the assay cells 2 h after infection with the different viruses. Virus and compounds were left on the cells for the entire duration of the experiment (28 h for Zika virus and 24 h for all other viruses). The cytotoxicity of the same range of concentrations of compounds was determined by LDH release assay in the same cell lines.
(§2) Cell plating. Cells were detached and counted following SOP-RA 003 and SOP-RA 004. Count was recorded in the Cell Count Logbook, Volume 1. For each virus four plates were seeded, two for the antiviral assay and two for the cytotoxicity assay. Cells were seeded in 100 μl/well of complete media at the following densities: • Huh7: 8,000 cells/well (Dengue) • SH-SY5Y: 10,000 cells/wells (Zika) • HeLa Tzmbl: 8,000 cells/well (HIV)
(§3) Compounds dilutions. The 22.1 mM stocks were further diluted to 1 mM in DMSO by adding 211 μl of DMSO to 10 μl of compound. Three serial dilutions were prepared in different media for different viruses/cells. For each dilution, drugs were prepared at twice the final concentration in 50 μl volume, because they are diluted to the final concentration by an equal volume of virus or media.
(§4) Infection. Cells were infected in 50 μl of supplemented media/well at the following multiplicity of infection (MOI): • DENV-2, MOI 1 • ZIKV, MOI 5 • HIV, MOI 0.5
(§5) After removing culture media from cells, 50 μl of virus dilution were added to all wells except Column 11 (uninfected control), where the same volume of supplemented media was added. […]
(§6) Infectivity readout. […] The primary antibodies were detected with an Alexa-488 conjugate secondary antibody (Life Technologies, A11001), and nuclei were stained with Hoechst. Images were acquired on a CellInsight CX5 high content platform (Thermo Scientific) using a 4× objective, and percentage infection calculated using CellInsight CX5 software (infected cells/total cells×100).
(§7) Determination of % Inhibition—IF assay. Normalized percentages of inhibition were calculated using the following formula: […]

HIV-1 = HIV-1 antiviral immunofluorescence assay in HeLa Tzmbl cells; type: cell-based; settings: Human immunodeficiency virus 1, read-out: EC50 HIV-1
Procedure: as §1, §2, §3, §4, §5, §6, §7

hepcidin expression = assay: Hepcidin and SMAD7 expression in HepG2 human hepatocytes; type: cell-based; settings: HepG2, 24 hr incubation
Procedure: FIG. 8A and FIG. 8B. HepG2—24 hr incubation.

[7] = tested on: recombinant SARS-CoV-2 spike RBD protein binding to Calu-3 cells
[8] = tested on: recombinant SARS-CoV-2 spike RBD protein binding to Caco-2 cells
[9] = tested on: primary human bronchial epithelial cells; settings: 10 nM and 100 nM
[10] = human, cited from earlier work

Compound: O=C(CC1NCCCC1O)Cn1cnc2cc(Br)c(Cl)cc2c1=O (racemic) [halofuginone]
- effect on heparan sulfate presentation (10E4 binding) [1]: 10E4 binding increased and did not significantly alter heparan sulfate production and presentation
- effect on heparan sulfate presentation (10E4 binding) ([1]; listed as Halofuginone): did not decrease cellular HS
- disaccharide composition of HS [2]: No difference was seen in the disaccharide composition
- reduction of cell surface HS ([2]; 0.5 μM): ~4 fold
- expression of core HSPGs (mAb 3G10) [3]: reduced the expression of core HSPGs in a dose-dependent manner
- infectious SARS-CoV-2 in supernatants (plaque assay) (authentic SARS-CoV-2 [4]): No infectious SARS-CoV-2 could be detected; also recorded: No virus was detected
- number of SARS-CoV-2 infected cells (authentic SARS-CoV-2 [5]; at both 10 nM and 100 nM): significantly reduced the number of SARS-CoV-2 infected cells
- inhibition of SARS-CoV-2 (authentic SARS-CoV-2 [5]; different halofuginone doses): complete inhibition of SARS-CoV-2
- cell proliferation (cell number) (Vero E6 cells): inhibit SARS-CoV-2 infection and cell proliferation
- viral titer (TCID50 from nasal washes) ([6]; day 3 and day 5): significantly reduced viral titer by day 5 post infection
- viral titer (TCID50 from nasal washes) ([6]; day 3 and day 5, listed as Halofuginone): potent anti-viral efficacy
- body weight ([6]; 200 μg/kg intraperitoneally, day -1 to day 5): no deleterious effect on body weight
- EC50 (DENV-2 (Dengue)): 35.4 nM
- EC50 (HIV-1): 23.6 nM
- BMP induced expression of hepcidin (hepcidin expression): inhibits BMP induced expression of hepcidin
- SMAD7 levels (hepcidin expression): increases SMAD7 levels
- inflammation (IL6) induced expression of hepcidin (hepcidin expression): inhibits inflammation (1L6) induced expression of hepcidin
- effect on spike (RBD) protein binding [7]: dose-dependently inhibited spike protein binding
- reduction in spike RBD binding [7]: 5 fold
- effect on spike (RBD) protein binding ([7]; listed as Halofuginone): reduced spike RBD protein binding
- effect on spike (RBD) protein binding [8]: dose-dependently inhibited spike protein binding
- effect on spike (RBD) protein binding ([8]; listed as Halofuginone): reduced spike RBD protein binding
- cell viability [9]: without affecting cell viability
- accumulation, exposure by day 15 of dosing ([10]; phase I): two- to three-fold higher exposure
- half-life ([10]; phase I): ~3 h
- oral bioavailability ([10]; phase I): orally bioavailable
- average Cmax ([10]; single oral administration of 0.5 mg): 0.54 ng/mL
- average Cmax ([10]; single oral administration of 3.5 mg): 3.09 ng/mL

Reference: patent US20230321101A1, “METHODS AND USES OF HALOFUGINONE” (The Regents of the University of California, priority 2020, published 2023)
